Reference: patent US12534478B2, “Prevention, prophylactic and therapeutic treatment of autoimmune diseases including multiple sclerosis using novel small molecules and compositions thereof” (University of Sharjah, priority 2020, dated 2026)
Entries after “also recorded” stand apart in the source; their conditions may differ.

Legend:
[1] = tested on: experimental autoimmune encephalomyelitis (EAE) model; test: EAE clinical score in PLP-induced EAE mice; assay type: in vivo, SJL/J female mice; conditions: for clinical score severity and clinical features (therapeutic effect in EAE mice model): regimen not specified
Protocol: The basic experimental approaches to test the efficacy of the compounds in the EAE model were done using the methodologies developed in our laboratory. EAE disease was induced in 4-6 weeks SJL female mice using 200 μg PLP peptide emulsified in complete Freund's adjuvant (CFA) containing 1 mg heat-killed Mycobacterium tuberculosis, injected at four sites in the right and left flanks. Following each injection, 200 ng of Bordetella pertussis toxin PTX) was injected intraperitoneal (IP) on days 0 and 2 post PLP immunization. The mice were divided into several groups: 1. prevention, where they were treated with 50 μg/mouse of SIMR1281 or SIMR1707 starting 15 days before the induction of EAE and continued […]. 2. Prophylactic, mice were treated with 50 μg/moues of SIMR1281 or SIMR1707 starting from day of EAE induction and continued every three days until termination (usually between 40-45 days). 3. Therapeutic, where mice were treated with 50 μg of SIMR1281 or SIMR1707 from the days of disease development (usually between 8-10 post EAE induction), and continued every three days until termination. The procedure for these regimens is shown below: • A. Prophylactic regimen: Mice were injected IP with 50 μg/mouse every 3 days since the initiation of the disease and until termination.
[drawing 3] • B. Therapeutic regimen: Mice were injected IP with 50 μg/mouse every 3 days at the appearance of symptoms (usually […]) days after initiation of the disease and until termination.
[drawing 4] • C. Prevention: The mice were injected IP with 50 μg/mouse of SIMR 1707 or 1281 at days −15, −10, −5, and 0. EAE was induced at day 0.
(§1) Untreated mice or mice injected with DMSO as a vehicle were used. For positive group, the results regarding the effects of RTX were used. During the course of the EAE disease, the animals were independently observed and monitored daily, and the EAE clinical score was recorded according to the following scoring scheme: 0=no clinical disease, 1=tail flaccidity, 2=hind limb weakness, 3=hind limb paralysis, 4=forelimb paralysis, and 5=moribund or death. The body weight changes were also monitored for all the mice groups. After the termination of the experiment, the mice were sacrificed, and their brains were collected for histological and immunohistochemistry analysis.

[2] = Body weight of EAE mice during treatment; assay type: in vivo; conditions: prophylactic, therapeutic or prevention regimen, measured every day up to 45 days (FIG. 5)
Protocol: as §1
(§2) FIG. 5 illustrates the weights of mice measured every day through the course of the experiments, i.e. up to 45 days after the initiation of the disease. FIGS. 5A, 5B and 5C, show the weights of mice after prophylactic, therapeutic or prevention regimen, respectively. Significant values shown in the right panels compared the mice body weights among the various groups. To corroborate the results of clinical scores with histological evaluation, we performed immunohistochemistry analysis to evaluate the effects of the two drugs on the inflammation taking place in the brain. First, we stained the brain cerebellum of these mice with H&E to evaluate the degree of inflammation.

[3] = tested on: perivascular inflammatory infiltrates in cerebellum; test: H&E staining of brain cerebellum (degree of inflammation); assay type: in vivo, SJL/J female mice; conditions: 50 μg/mouse IP (FIG. 6)
Protocol: as §1, §2

[4] = tested on: CD3^+ T lymphocyte infiltration into the cerebellum; test: Anti-CD3 staining of cerebellum; assay type: in vivo, SJL/J female mice; conditions: 50 μg/mouse IP (FIG. 7)
Protocol: as §1
FIG. 6 illustrates H&E staining of mice cerebellum (rectangles) showing highly inflamed lesions in EAE untreated and vehicle treated mice (arrows). […] Further, infiltration of CD3 cells into the mice cerebellum stained with anti-CD3 was performed.

GFAP = GFAP staining of cerebellum (glial cell activation, gliosis); assay type: in vivo, SJL/J female mice; conditions: 50 μg/mouse IP (FIG. 8)
Protocol: as §1
FIG. 7 illustrates infiltration of CD3^+ lymphocytes into the cerebellum of mice brains (rectangles or squares). […] To further investigate the effects of the drugs on brain inflammation, we examined the activation of glial cells by staining with GFAP which determines the degree of gliosis.

[5] = tested on: demyelination in the cerebellum; test: Luxol fast blue staining of cerebellum (demyelination / re-myelination); assay type: in vivo, SJL/J female mice; conditions: 50 μg/mouse IP (FIG. 9)
Protocol: as §1
FIG. 8 illustrates mouse brain cerebellum (rectangles or squares) was stained with GFAP to determine the degree of glial cell activation. […] Finally, we stained the mice brain cerebellum with Luxol fast blue to determine the degree of re-myelination after treatment with the two drugs.

[6] = prevention regimen, 50 μg/mouse IP on days −15, −10, −5 and 0, EAE induced at day 0, vs vehicle or untreated (FIG. 3C)
[7] = prophylactic regimen, 50 μg/mouse IP every 3 days from EAE induction until termination, vs vehicle or untreated (FIG. 3A)
[8] = therapeutic regimen, 50 μg/mouse IP every 3 days from appearance of symptoms until termination, vs vehicle or untreated (FIG. 3B)

C[C@]12CCC(=O)C[C@H]1N1CCc3c([nH]c4ccccc34)[C@@H]1CO2 [SIMR-1707]
clinical score severity and clinical features (therapeutic effect in EAE mice model) [1]: significant reduction
EAE clinical scores [1, 6]: not when used in the prevention regimen
EAE clinical scores [1, 7]: effective
EAE clinical scores [1, 8]: effective
body weight [2]: significantly increased the weights
inflammation, perivascular inflammatory infiltrates (H&E) ([3]; prevention regimen): minimal evidence of perivascular inflammatory infiltrates; also recorded: less inflammation
inflammation, perivascular inflammatory infiltrates (H&E) ([3]; prophylactic regimen): minimal evidence of perivascular inflammatory infiltrates; also recorded: less inflammation
inflammation, perivascular inflammatory infiltrates (H&E) ([3]; therapeutic regimen): no evidence of perivascular inflammatory infiltrates; also recorded: completely disappeared
CD3^+ T lymphocyte infiltration ([4]; prevention regimen): less infiltration of CD3^+ T cells
CD3^+ T lymphocyte infiltration ([4]; prophylactic regimen): partially reduce; also recorded: less infiltration of CD3^+ T cells
CD3^+ T lymphocyte infiltration ([4]; therapeutic regimen): no evidence of any CD3^+ T lymphocyte infiltration; also recorded: completely disappeared
GFAP expression / gliosis (GFAP; prevention regimen): only partial reduction; also recorded: Less gliosis
GFAP expression / gliosis (GFAP; prophylactic regimen): significant reduction; also recorded: no obvious glial cells activation
GFAP expression / gliosis (GFAP; therapeutic regimen): significant reduction; also recorded: no obvious glial cells activation
demyelination / re-myelination (Luxol fast blue) ([5]; prevention regimen): partial improvement in re-myelination; also recorded: partial improvement in demyelination
demyelination / re-myelination (Luxol fast blue) ([5]; prophylactic regimen): partial improvement in re-myelination; also recorded: partial improvement in demyelination
demyelination / re-myelination (Luxol fast blue) ([5]; therapeutic regimen): significant reduction in the demyelination areas

Rituximab [RTX, reference compound]
EAE clinical scores ([1]; RTX as prophylactic drug, IP from day 0 every three days until termination (FIG. 4A)): did not exert significant differences
EAE clinical scores ([1]; RTX as therapeutic drug, 5 μg/mouse IP from first sign of disease every three days until termination (FIG. 4B)): did not exert significant differences
EAE clinical scores ([1]; RTX prevention regimen, IP on days −15, −10, −5 and 0, particularly at high concentration, 20 μg/mouse (FIG. 4C)): only worked in the prevention regimen

CC1(C)[C@H]2COc3ccc4ccccc4c3[C@H]2N=C2SC(c3ccccc3)=C(c3ccccc3)N21 [SIMR-1281, (8aS,14aS)-9,9-dimethyl-11,12-diphenyl-8a,14a-dihydro-8H,9H-benzo[5,6]chromeno[4,3-d]thiazolo[3,2-a]pyrimidine]
clinical score severity and clinical features (therapeutic effect in EAE mice model) [1]: significant reduction
EAE clinical scores [1, 6]: significant decrease
EAE clinical scores [1, 7]: significant decrease
EAE clinical scores [1, 8]: significant decrease
body weight [2]: significantly increased the weights
inflammation, perivascular inflammatory infiltrates (H&E) ([3]; prevention regimen): no evidence of any perivascular inflammatory infiltrates; also recorded: no inflammation
inflammation, perivascular inflammatory infiltrates (H&E) ([3]; prophylactic regimen): no evidence of any perivascular inflammatory infiltrates; also recorded: no inflammation
inflammation, perivascular inflammatory infiltrates (H&E) ([3]; therapeutic regimen): no evidence of any perivascular inflammatory infiltrates; also recorded: no inflammation
CD3^+ T lymphocyte infiltration ([4]; prevention regimen): no evidence of CD3^+ T lymphocyte infiltration; also recorded: no CD3^+ T cell accumulation
CD3^+ T lymphocyte infiltration ([4]; prophylactic regimen): no evidence of CD3^+ T lymphocyte infiltration; also recorded: no CD3^+ T cell accumulation
CD3^+ T lymphocyte infiltration ([4]; therapeutic regimen): no evidence of CD3^+ T lymphocyte infiltration; also recorded: no CD3^+ T cell accumulation
GFAP expression / gliosis (GFAP; prevention regimen): significant reduction; also recorded: so robust in preventing gliosis
GFAP expression / gliosis (GFAP; prophylactic regimen): significant reduction; also recorded: so robust in preventing gliosis
GFAP expression / gliosis (GFAP; therapeutic regimen): significant reduction; also recorded: so robust in preventing gliosis
demyelination / re-myelination (Luxol fast blue) ([5]; prevention regimen): no evidence of demyelination
demyelination / re-myelination (Luxol fast blue) ([5]; prophylactic regimen): no evidence of demyelination
demyelination / re-myelination (Luxol fast blue) ([5]; therapeutic regimen): no evidence of demyelination
